{"source": "paper PMC4817029", "about": "“Molecular characterization of a family 5 glycoside hydrolase suggests an induced-fit enzymatic mechanism” (Scientific Reports, 2016)", "key": {"BlCel5B [1]": {"target": "T1, BlCel5B (Bacillus licheniformis, UniProt Q65JI7)", "T1 construct": "gene celC; full-length trimodular enzyme (CD, Ig-like, CBM46) without signal peptide (nucleotides 1-81 removed; gene end nt 1683); E. coli Rosetta2 (DE3), pETTRXA-1a/LIC; His6 tag cut by TEV; monomer", "T1 sequence (Q65JI7 entry or part of it)": "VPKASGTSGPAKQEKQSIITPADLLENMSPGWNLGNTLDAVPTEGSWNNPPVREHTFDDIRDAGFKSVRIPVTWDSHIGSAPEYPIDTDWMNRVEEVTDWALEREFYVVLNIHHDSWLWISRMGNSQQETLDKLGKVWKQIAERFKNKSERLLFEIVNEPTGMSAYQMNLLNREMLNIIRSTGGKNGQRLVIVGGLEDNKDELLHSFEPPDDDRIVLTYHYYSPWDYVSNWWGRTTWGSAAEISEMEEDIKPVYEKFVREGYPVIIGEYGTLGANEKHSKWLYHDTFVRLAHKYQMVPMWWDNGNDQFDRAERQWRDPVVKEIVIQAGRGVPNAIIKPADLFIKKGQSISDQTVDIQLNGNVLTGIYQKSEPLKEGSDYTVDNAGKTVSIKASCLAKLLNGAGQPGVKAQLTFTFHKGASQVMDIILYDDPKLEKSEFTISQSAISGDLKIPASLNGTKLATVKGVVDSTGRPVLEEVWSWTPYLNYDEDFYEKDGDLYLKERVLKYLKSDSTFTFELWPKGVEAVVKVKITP", "test": "X-ray crystal structure ([…] A) after soaking with cellopentaose", "format": "binding", "conditions": "crystal soaked with five times molar excess of cellopentaose for 24 h; cellotetraose from cleavage in the crystal; subsites -1 to -3 of the catalytic domain"}, "BlCel5B [2]": {"target": "T1, BlCel5B", "test": "MALDI/TOF-MS product profile", "format": "biochemical", "conditions": "1.0 mM cellopentaose, 10 mM ammonium bicarbonate pH 7.0, 50 C, 90 min"}}}
{"smiles": "OC[C@H]1O[C@@H](O[C@H]2[C@H](O)[C@@H](O)[C@H](O[C@H]3[C@H](O)[C@@H](O)[C@H](O[C@H]4[C@H](O)[C@@H](O)C(O)O[C@@H]4CO)O[C@@H]3CO)O[C@@H]2CO)[C@H](O)[C@@H](O)[C@@H]1O", "note": "(some centres unmarked) [C4, cellotetraose]", "values": [{"measurement": "X-ray crystal structure (1.75 A) after soaking with cellopentaose", "setting": "BlCel5B [1]", "result": "Electron density maps clearly reveal the presence of a cellotetraose (C4)"}]}
{"smiles": "OC[C@H]1O[C@@H](O[C@H]2[C@H](O)[C@@H](O)[C@H](O[C@H]3[C@H](O)[C@@H](O)[C@H](O[C@H]4[C@H](O)[C@@H](O)[C@H](O[C@H]5[C@H](O)[C@@H](O)C(O)O[C@@H]5CO)O[C@@H]4CO)O[C@@H]3CO)O[C@@H]2CO)[C@H](O)[C@@H](O)[C@@H]1O", "note": "(some centres unmarked) [C5, cellopentaose]", "values": [{"measurement": "MALDI/TOF-MS product profile", "setting": "BlCel5B [2]", "result": "ability of BlCel5B to cleave C5 into glucose and C4 molecules in solution was demonstrated"}]}
